According to US9345716B2, “Protein free surfactant composition for pulmonary diseases and a process for preparing the same” (INDIAN INSTITUTE OF TECHNOLOGY, BOMBAY, priority 2010, dated 2016):
Several values for one entry are separate records, joined by “and”; a condition that tells them apart may be missing. Identical values can stand only once.

Legend:
[1] = Airway patency in a capillary surfactometer; details: 37 C, graded concentrations of albumin
Protocol: This is evaluated in a capillary surfactometer at 37 C at a concentration of 1 mg/ml of the surfactant in the presence of 0.5 mg/ml of albumin.
FIG. 2 compares the airway patency of DPPC:Eugenol 5:3 (present invention) at a concentration of 1 mg/ml with that of DPPC:clove oil 5:3 1 mg/ml in the absence and presence of 0.5 mg/ml of albumin in a capillary surfactometer at 37 C.

[2] = Laurdan fluorescence ratio (lamellar/non-lamellar phase state); type: physicochemical; details: for Ratio of Laurdan fluorescence 360/390: 360 and 390 nm; for Ratio of Laurdan fluorescence 360/490: 360 and 490 nm
Excerpt: (§1) Laurdan (6-dodecanoyl-2-dimethylaminonaphthalene) is a fluorescent membrane probe that has the advantage of displaying spectral sensitivity to the phospholipids phase state.
as §1

[3] = Atomic force microscopy of surfactant films in presence of albumin; type: physicochemical; details: in the presence of albumin
Excerpt: The invented surfactant of DPPC: eugenol 5:3 forms closely packed structures having nanodomains in the presence of albumin. The DPPC: eugenol surfactant in the absence and presence of albumin was compared with that of DPPC alone in the absence and presence of albumin, using atomic force microscopy (AFM). AFM images of DPPC in the presence of albumin and DPPC: eugenol 5:3 in the presence of albumin are depicted in FIGS. 11 and 13 respectively and the roughness of the structures are depicted in FIGS. 12 and 14. […] The surface roughness of DPPC in the presence of albumin is depicted in FIG. 12. It confirms large aggregates with roughness of 47.47 nm. On the other hand, in the case of DPPC: eugenol in the presence of albumin, the surface roughness is only 8.9 nm as depicted in FIG. 14. The formation of nanodomains of 80-90 nm with surface roughness of 8.9 nm allows a closely packed organization which accounts for the improved surface activity of the surfactant in the presence of albumin.

[4] = Differential scanning calorimetry: energy required by liposomes to reach the interface; type: physicochemical; details: liposomes 1 mg/ml
Protocol: Differential scanning calorimetry (DSC) was also used to study the interaction of bioactive compounds with model lipid bilayers such as DPPC. The experiments were performed at temperature ranging from 35° C. to 115° C. The rate of heating was 3° C./min and the system was allowed to cool to about 35° C. before the next experiment. The samples studied in the order of DSC results were,
Differential scanning calorimetry (DSC) was used to study the interaction of bioactive compounds with model lipid bilayers such as DPPC. The experiments were performed at temperature ranging from 35° C. to 115° C. The rate of heating was 3° C./min and the system was allowed to cool to about 35° C. before the next experiment. […] The lower the energy required by the nanovesicles, better is the rate of adsorption. […] On addition of HCl (as an acid inhibitor), there was an increase in the energy (1743 J/g) of the DPPC liposomes which affected the adsorption (59.89±2.22mN/m) of these acid-treated liposomes. The energy barrier prevented the rapid entry of these liposomes at the interface thereby affecting adsorption.

[5] = Surfactant adsorption to air-liquid interface in a langmuir trough; type: physicochemical
Protocol: Salbutamol or dexamethasone were added in a ratio of 1 part of surfactant to 0.1 parts of drug while gentamycin was added in a ratio of 1 part of surfactant to 0.2 parts of drug by weight.

| Ratio of Laurdan fluorescence 360/390 ([2]; in the presence of albumin) | Ratio of Laurdan fluorescence 360/390 ([2]; no albumin) | Ratio of Laurdan fluorescence 360/490 ([2]; in the presence of albumin) | Ratio of Laurdan fluorescence 360/490 ([2]; no albumin) | Domain size (AFM) [3] | Surface roughness (AFM) [3] [nm] | Energy required for the liposomes to reach the interface (DSC) ([4]; HCl 3.1×10^−1 moles/dm^3) [J/g] | Energy required for the liposomes to reach the interface (DSC) ([4]; acid-untreated) [J/g] | Adsorption (rate of adsorption, surface tension) ([5]; acid-treated, HCl 3.1×10^−1 moles/dm^3) [mN/m] | Adsorption (rate of adsorption, surface tension) ([5]; acid-untreated, liposomes 1 mg/ml) [mN/m] | Structure (SMILES) | Airway patency in presence of graded amounts of albumin [1] [%] |
| --- | --- | --- | --- | --- | --- | --- | --- | --- | --- | --- | --- |
| – | – | – | – | – | – | – | – | – | – | C=CCc1ccc(O)c(OC)c1 [eugenol] | 0 |
| 1.98 and 1.99 | 2.6 and 2.615 | 1.21 and 1.215 | 2.41 | 540-550 nm | 47.47 | 1743 | 1325 | 59.89±2.22 | 44.66±1.71 | CCCCCCCCCCCCCCCC(=O)OC[C@H](COP(=O)([O-])OCC[N+](C)(C)C)OC(=O)CCCCCCCCCCCCCCC [DPPC, dipalmitoylphosphatidylcholine] | 0 |
